Assay results reported in ChEMBL document CHEMBL1134193, “Initial structure-activity relationship of a novel class of nonpeptidyl GnRH receptor antagonists: 2-arylindoles” (Bioorg Med Chem Lett, 2001).

Experiments:
[1] = molecular target: T1, Gonadotropin-releasing hormone receptor (Rattus norvegicus, UniProt P30969); assay: Ability to displace [125I]- - radio-labeled buserelin from rat Gonadotropin-releasing hormone receptor
T1 sequence (P30969 whole entry): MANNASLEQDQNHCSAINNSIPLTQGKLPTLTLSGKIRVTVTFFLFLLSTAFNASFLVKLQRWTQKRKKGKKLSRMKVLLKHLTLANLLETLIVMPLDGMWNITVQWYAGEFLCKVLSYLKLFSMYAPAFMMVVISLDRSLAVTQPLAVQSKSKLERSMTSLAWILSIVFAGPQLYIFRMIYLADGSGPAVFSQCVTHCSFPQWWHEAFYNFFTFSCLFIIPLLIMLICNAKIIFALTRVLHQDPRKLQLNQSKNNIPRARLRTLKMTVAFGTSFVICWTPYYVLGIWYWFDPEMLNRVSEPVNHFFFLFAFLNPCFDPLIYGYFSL

[2] = molecular target: T2, Gonadotropin-releasing hormone receptor (Rattus norvegicus) (UniProt P30969); assay: Percent inhibition of displacement of [125I]- - radio-labeled buserelin from rat Gonadotropin-releasing hormone receptor; details: concentration not given here
T2 sequence (whole entry): T1 sequence (P30969 whole entry)

Compound | IC50 [1] | inhibition [2]
Cc1cc(C)cc(-c2[nH]c3ccccc3c2CCNCc2ccc(O)cc2)c1 | 9000 nM | –
COc1ccc(-c2[nH]c3ccccc3c2CCNCCCCCCc2ccc(O)cc2)cc1OC | 10000 nM | –
Cc1ccccc1-c1[nH]c2ccccc2c1CCNCCCCc1ccc(O)cc1 | 500 nM | –
COc1ccc(-c2[nH]c3ccccc3c2CCNC(=O)CCCc2ccc([N+](=O)[O-])cc2)cc1OC | > 30000 nM | –
Cc1ccc(-c2[nH]c3ccccc3c2CCNCCCCc2ccc(O)cc2)cc1 | 9000 nM | –
Oc1ccc(CCCCNCCc2c(-c3ccccc3)[nH]c3ccccc23)cc1 | 1300 nM | –
COc1ccc(-c2[nH]c3ccccc3c2CCNC(=O)CCCc2ccc(N)cc2)cc1OC | 30000 nM | –
Cc1cccc(C)c1-c1[nH]c2ccccc2c1CCNCCCCc1ccc(O)cc1 | 1700 nM | –
Oc1ccc(CCCCNCCc2c(-c3ccc(F)cc3)[nH]c3ccccc23)cc1 | 11000 nM | –
Cc1cccc(-c2[nH]c3ccccc3c2CCNCCCCc2ccc(O)cc2)c1C | 900 nM | –
COc1ccc(-c2[nH]c3ccccc3c2CCNC[C@@H](O)COc2ccc(O)cc2)cc1OC | 3000 nM | –
COc1ccc(-c2[nH]c3ccccc3c2CCNCc2ccc(O)cc2)cc1OC | 20000 nM | –
Oc1ccc(CCCCNCCc2c(-c3cc(Cl)cc(Cl)c3)[nH]c3ccccc23)cc1 | 170 nM | –
Oc1ccc(CCCCNCCc2c(-c3csc4ccccc34)[nH]c3ccccc23)cc1 | 300 nM | –
Cc1cc(C)cc(-c2[nH]c3ccccc3c2CCNCCCc2ccc(O)cc2)c1 | 250 nM | –
Cc1ccc(C)c(-c2[nH]c3ccccc3c2CCNCCCCc2ccc(O)cc2)c1 | 400 nM | –

The remaining lines, values ahead:

IC50 [1] | inhibition [2] | Compound
1500 nM | – | Oc1ccc(CCCCNCCc2c(-c3cc(C(F)(F)F)cc(C(F)(F)F)c3)[nH]c3ccccc23)cc1
4000 nM | – | COc1ccc(-c2[nH]c3ccccc3c2CCNCCc2ccc(O)cc2)cc1OC
600 nM | – | Cc1cc(C)cc(-c2[nH]c3ccccc3c2CCNCCCCCCc2ccc(O)cc2)c1
1900 nM | – | Oc1ccc(CCCCNCCc2c(-c3cccc4cnccc34)[nH]c3ccccc23)cc1
– | 0% | COc1ccc(-c2[nH]c3ccccc3c2CCNC(=O)CCCc2ccc(OCc3ccccc3)cc2)cc1OC
6000 nM | – | COc1ccc(-c2[nH]c3ccccc3c2CCNCCCc2ccc(O)cc2)cc1OC
50 nM | – | Cc1cc(C)cc(-c2[nH]c3ccccc3c2CCNCCCCc2ccc(O)cc2)c1
700 nM | – | COc1cc(OC)cc(-c2[nH]c3ccccc3c2CCNCCCCc2ccc(O)cc2)c1
130 nM | – | Oc1ccc(CCCCNCCc2c(-c3cccc4ccccc34)[nH]c3ccccc23)cc1
5000 nM | – | COc1ccc(-c2[nH]c3ccccc3c2CCNCCCCc2ccc([N+](=O)[O-])cc2)cc1OC
3000 nM | – | COc1ccc(-c2[nH]c3ccccc3c2CCNC[C@H](O)COc2ccc(O)cc2)cc1OC
2500 nM | – | Oc1ccc(CCCCNCCc2c(-c3ccc4ccccc4c3)[nH]c3ccccc23)cc1
900 nM | – | CCc1cccc(-c2[nH]c3ccccc3c2CCNCCCCc2ccc(O)cc2)c1
600 nM | – | COc1cccc(-c2[nH]c3ccccc3c2CCNCCCCc2ccc(O)cc2)c1
200 nM | – | Cc1cc(C)cc(-c2[nH]c3ccccc3c2CCNCCc2ccc(O)cc2)c1
> 30000 nM | – | COc1ccc(-c2[nH]c3ccccc3c2CCNC(=O)CCCc2ccc(O)cc2)cc1OC
200 nM | – | Cc1cccc(-c2[nH]c3ccccc3c2CCNCCCCc2ccc(O)cc2)c1
30000 nM | – | COc1ccc(-c2[nH]c3ccccc3c2CCNCCCCc2ccc(OCc3ccccc3)cc2)cc1OC
200 nM | – | Cc1cc(C)cc(-c2[nH]c3ccccc3c2CCNCCCCCc2ccc(O)cc2)c1
10000 nM | – | COc1ccc(-c2[nH]c3ccccc3c2CCNCCCCc2ccc(N)cc2)cc1OC
2000 nM | – | COc1ccc(-c2[nH]c3ccccc3c2CCNCCCCCc2ccc(O)cc2)cc1OC
2500 nM | – | Oc1ccc(CCCCNCCc2c(-c3cc4ccccc4s3)[nH]c3ccccc23)cc1
2000 nM | – | COc1ccc(-c2[nH]c3ccccc3c2CCNC[C@H](O)CCc2ccc(O)cc2)cc1OC
2800 nM | – | Cn1ccc2cc(-c3[nH]c4ccccc4c3CCNCCCCc3ccc(O)cc3)ccc21
2000 nM | – | COc1ccc(-c2[nH]c3ccccc3c2CCNCCCCc2ccc(O)cc2)cc1OC
